Reference: patent US9890147B2 (BAYER PHARMA AKTIENGESELLSCHAFT, priority 2012, dated 2018)

How the values were obtained:
[1] = test system: MOLM-13 cells; assay: Cell proliferation assay (alamarBlue), MOLM-13; assay type: cell-based; details: Homo sapiens, 96 hours incubation, inhibition of cell proliferation
Protocol: In accordance with the invention, the capability of the substances to inhibit cell proliferation was determined Cell viability was determined using the alamarBlue® reagent (Invitrogen) in a Victor X3 Multilabel Reader (Perkin Elmer). The excitation wavelength was 530 nm and the emission wavelenth […].
The MOLM-13 cells (DSMZ, ACC 554) were sown at a concentration of 4000 cells/well in 100 μl growth medium (RPMI1640, 10% FCS) on 96-well microtitre plates.
After an overnight incubation at 37° C., the fluorescence values (CI values) were determined. The plates were then treated with various substance dilutions (1E-5 M, 3E-6 M, 1E-6M, 3E-7 M, 1E-7 M, 3E-8 M, 1E-8 M) and incubated at 37° C. for 72 (MV4-11-, LOX-IMVI cells), 96 (MOLM-13-, B16F10-, MDA-MB-431-, Caov-3 cells), 120 (MOLP-8-, KMS-12-PE cells) or 168 (LAPC-4 cells) hours. The fluorescence values (CO values) were then determined. For the data analysis, the CI values were subtracted from the CO values and the results were compared between cells treated with different dilutions of the substance or with buffer solution only. These were used to calculate the IC 50 values (substance concentration required for 50% inhibition of cell proliferation).

[2] = molecular target: T1, BRD4 (BD1) (Homo sapiens, UniProt O60885); assay: Binding assay BRD4/acetylated peptide H4 (TR-FRET protein-protein interaction assay)
T1 construct: with relatively long constructs also being possible, preferably amino acids 44-168; made in house; host or cells: E. coli
Outline: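 His6-BRD4 BD1 (aa 67-152, E. coli), usually 10 nM, with biotinylated tetra-acetylated H4 peptide in HEPES pH 7.5 buffer; 11 compound concentrations 0.1 nM–20 μM in duplicate, 10 min preincubation, 1 h at 22 °C then ≥3 h at 4 °C. TR-FRET 665/620 ratio; IC50 by 4-parameter fit.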

SMILES	IC50 [1] [nM]	IC50 [2] [nM]
CNC(=O)N1N=C(c2ccc(-c3ccc(CO)cc3)cc2)c2cc(OC)c(OC)cc2CC1C (racemic) [Example 94, (±)-1-[4′-(hydroxymethyl)biphenyl-4-yl]-7,8-dimethoxy-N,4-dimethyl-4,5-dihydro-3H-2,3-benzodiazepine-3-carboxamide]	380	40
CNC(=O)N1N=C(c2ccc(-c3ccccc3)cc2)c2cc(OC)c(OC)cc2CC1C (racemic) [Example 60, (±)-1-(biphenyl-4-yl)-7,8-dimethoxy-N,4-dimethyl-4,5-dihydro-3H-2,3-benzodiazepine-3-carboxamide]	480	80
CNC(=O)N1N=C(c2cccc(N3CCOCC3)c2)c2cc(OC)c(OC)cc2CC1C (racemic) [Example 140, (±)-7,8-dimethoxy-N,4-dimethyl-1-[3-(morpholin-4-yl)phenyl]-4,5-dihydro-3H-2,3-benzodiazepine-3-carboxamide]	470	60
CNC(=O)N1N=C(c2ccc(-c3ccc(C(F)(F)F)nc3)cc2)c2cc(OC)c(OC)cc2CC1C (racemic) [Example 50, (±)-7,8-dimethoxy-N,4-dimethyl-1-{4-[6-(trifluoromethyl)pyridin-3-yl]phenyl}-4,5-dihydro-3H-2,3-benzodiazepine-3-carboxamide]	560	150
CNC(=O)N1N=C(c2ccc(-c3ccc(-c4ccc(Cl)s4)cc3)cc2)c2cc(OC)c(OC)cc2CC1C (racemic) [Example 88, (±)-1-[4′-(5-chlorothien-2-yl)biphenyl-4-yl]-7,8-dimethoxy-N,4-dimethyl-4,5-dihydro-3H-2,3-benzodiazepine-3-carboxamide]	670	290
CNC(=O)N1N=C(c2ccc(F)c(N3CCOCC3)c2)c2cc(OC)c(OC)cc2CC1C (racemic) [Example 144, (±)-1-[4-fluoro-3-(morpholin-4-yl)phenyl]-7,8-dimethoxy-N,4-dimethyl-4,5-dihydro-3H-2,3-benzodiazepine-3-carboxamide]	960	190
CNC(=O)N1N=C(c2ccc(-c3cccc(S(C)(=O)=O)c3)cc2)c2cc(OC)c(OC)cc2CC1C (racemic) [Example 73, (±)-7,8-dimcthoxy-N,4-dimethyl-1-[3′-(methylsulphonyl)biphenyl-4-yl]-4,5-dihydro-3H-2,3-benzodiazepine-3-carboxamide]	300	30
CNC(=O)N1N=C(c2ccc(-c3ccc(Cl)cc3)cc2)c2cc(OC)c(OC)cc2CC1C (racemic) [Example 63, (±)-1-(4′-chlorobiphenyl-4-yl)-7,8-dimethoxy-N,4-dimethyl-4,5-dihydro-3H-2,3-benzodiazepine-3-carboxamide]	770	170
CNC(=O)N1N=C(c2ccc(N3CCN(C(=O)C(C)(C)O)CC3)cc2)c2cc(OC)c(OC)cc2C[C@@H]1C [Example 134.1, (4S)-1-{4-[4-(2-hydroxy-2-methylpropanoyl)piperazin-1-yl]phenyl}-7,8-dimethoxy-N,4-dimethyl-4,5-dihydro-3H-2,3-benzodiazepine-3-carboxamide]	80	30
CNC(=O)N1N=C(c2ccc(N3CCC(C)(O)CC3)cc2)c2cc(OC)c(OC)cc2C[C@@H]1C [Example 188.2, (4S)-1-[4-(4-hydroxy-4-methylpiperidin-1-yl)phenyl]-7,8-dimethoxy-N,4-dimethyl-4,5-dihydro-3H-2,3-benzodiazepine-3-carboxamide]	70	30
CNC(=O)N1N=C(c2ccc(N3CC[C@H](O)C3)cc2)c2cc(OC)c(OC)cc2CC1C (mixture of isomers) [Example 190, (±)-1-{4-[(3S)-3-hydroxypyrrolidin-1-yl]phenyl}-7,8-dimethoxy-N,4-dimethyl-4,5-dihydro-3H-2,3-benzodiazepine-3-carboxamide]	80	90
CNC(=O)N1N=C(c2ccc(N3CCN(C)CC3)c(Br)c2)c2cc(OC)c(OC)cc2C[C@@H]1C [Example 253, (4S)-1-[3-Bromo-4-(4-methylpiperazin-1-yl)phenyl]-7,8-dimethoxy-N,4-dimethyl-4,5-dihydro-3H-2,3-benzodiazepine-3-carboxamide]	60	40

Continued by falling IC50 [1], values first:

IC50 [1] [nM]	IC50 [2] [nM]	SMILES
2700	390	CNC(=O)N1N=C(c2ccc(N3CCC(N(C)C)CC3)cc2)c2cc(OC)c(OC)cc2C[C@H]1C [Example 180.1, (4R)-1-{4-[4-(dimethylamino)piperidin-1-yl]phenyl}-7,8-dimethoxy-N,4-dimethyl-4,5-dihydro-3H-2,3-benzodiazepine-3-carboxamide]
2270	380	CNC(=O)N1N=C(c2ccc(N3CCS(=O)(=O)CC3)cc2)c2cc(N3CCS(=O)(=O)CC3)c(OC(F)(F)F)cc2CC1C (racemic) [Example 215, (±)-8-(1,1-dioxidothiomorpholin-4-yl)-1-[4-(1,1-dioxidothiomorpholin-4-yl)phenyl]-N,4-dimethyl-7-(trifluoromethoxy)-4,5-dihydro-3H-2,3-benzodiazepine-3-carboxamide]
1170	250	CCc1cc(C2CC2)nn1-c1ccc(C2=NN(C(=O)NC)[C@@H](C)Cc3ccc(OC)cc32)cc1 [Example 24]
1130	270	CNC(=O)N1N=C(c2ccc(N3CCC(C)(O)CC3)cc2)c2cc(OC)c(OC)cc2C[C@H]1C [Example 188.1, (4R)-1-[4-(4-hydroxy-4-methylpiperidin-1-yl)phenyl]-7,8-dimethoxy-N,4-dimethyl-4,5-dihydro-3H-2,3-benzodiazepine-3-carboxamide]
880	130	CNC(=O)N1N=C(c2ccc(Cl)cc2)c2cc(OCCCN3CCOCC3)ccc2CC1C (racemic) [Example 165, (±)-1-(4-chlorophenyl)-N,4-dimethyl-8-[3-(morpholin-4-yl)propoxy]-4,5-dihydro-3H-2,3-benzodiazepine-3-carboxamide]
880	110	CNC(=O)N1N=C(c2ccc(-c3ccc(C)cc3)cc2)c2cc(OC)c(OC)cc2CC1C (racemic) [Example 64, (±)-7,8-dimethoxy-N,4-dimethyl-1-(4′-methylbiphenyl-4-yl)-4,5-dihydro-3H-2,3-benzodiazepine-3-carboxamide]
830	110	CNC(=O)N1N=C(c2ccc(F)c(N3CC(F)(F)C3)c2)c2cc(OC)c(OC)cc2CC1C (racemic) [Example 145, (±)-1-[3-(3,3-difluoroazetidin-1-yl)-4-fluorophenyl]-7,8-dimethoxy-N,4-dimethyl-4,5-dihydro-3H-2,3-benzodiazepine-3-carboxamide]
750	50	CNC(=O)N1N=C(c2ccc(-c3cccnc3OC)cc2)c2cc(OC)c(OC)cc2CC1C (racemic) [Example 76, (±)-7,8-dimethoxy-1-[4-(2-methoxypyridin-3-yl)phenyl]-N,4-dimethyl-4,5-dihydro-3H-2,3-benzodiazepine-3-carboxamide]
580	640	CC[C@H]1Cc2cc(OC)c(OC)cc2C(c2ccc(N3CCNCC3)cc2)=NN1C(=O)NC [Example 202.1, (4S)-4-ethyl-7,8-dimethoxy-N-methyl-1-[4-(piperazin-1-yl)phenyl]-4,5-dihydro-3H-2,3-benzodiazepine-3-carboxamide]
560	330	CNC(=O)N1N=C(c2ccc(-c3c(C)noc3C)cc2)c2cc(OC(F)(F)F)c(Cl)cc2C[C@@H]1C [Example 156.1, (4S)-7-Chloro-1-[4-(3,5-dimethylisoxazol-4-yl)phenyl]-N,4-dimethyl-8-(trifluoromethoxy)-4,5-dihydro-3H-2,3-benzodiazepine-3-carboxamide]
290	70	CNC(=O)N1N=C(c2ccc(N3CCC(OC)CC3)cc2)c2cc(OC)c(OC)cc2CC1C (racemic) [Example 179, (±)-7,8-dimethoxy-1-[4-(4-methoxypiperidin-1-yl)phenyl]-N,4-dimethyl-4,5-dihydro-3H-2,3-benzodiazepine-3-carboxamide]
180	70	CNC(=O)N1N=C(c2ccc(N3CCN(CCO)CC3)cc2)c2cc(OC)c(OC)cc2CC1C (racemic) [Example 178, (±)-1-{4-[4-(2-hydroxyethyl)piperazin-1-yl]phenyl}-7,8-dimethoxy-N,4-dimethyl-4,5-dihydro-3H-2,3-benzodiazepine-3-carboxamide]
170	250	CNC(=O)N1N=C(c2ccc(N3CCS(=O)(=O)CC3)cc2)c2cc(Cl)c(OC(F)(F)F)cc2CC1C (racemic) [Example 210, (±)-8-chloro-1-[4-(1,1-dioxidothiomorpholin-4-yl)phenyl]-N,4-dimethyl-7-(trifluoromethoxy)-4,5-dihydro-3H-2,3-benzodiazepine-3-carboxamide]
